# In PubChem BioAssay AID434951 (Broad Institute, 2010):
# Active and inactive are the calls of the source.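 The calls were made as follows: active = a fitted half-maximal concentration EC50 for the rise in nuclear signal no higher than ten times the top dose tested; inconclusive = flat fit with activity between 30% and 70%, or unusable fit; inactive = EC50 beyond ten times the top dose.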
# Molecular target: Hypoxia-inducible factor 1-alpha (Homo sapiens) (UniProt Q16665)
# Experiment: HIF pathway activation, GFP-HIF1alpha translocation – imaging, fluorescence, U2OS GFP-HIF1alpha, confirmation (AID 434951)
# Conditions: U2OS GFP-HIF1alpha nuclear intensity, high-content imaging
# Sequence of Hypoxia-inducible factor 1-alpha (Homo sapiens) (Q16665 whole entry, looked up): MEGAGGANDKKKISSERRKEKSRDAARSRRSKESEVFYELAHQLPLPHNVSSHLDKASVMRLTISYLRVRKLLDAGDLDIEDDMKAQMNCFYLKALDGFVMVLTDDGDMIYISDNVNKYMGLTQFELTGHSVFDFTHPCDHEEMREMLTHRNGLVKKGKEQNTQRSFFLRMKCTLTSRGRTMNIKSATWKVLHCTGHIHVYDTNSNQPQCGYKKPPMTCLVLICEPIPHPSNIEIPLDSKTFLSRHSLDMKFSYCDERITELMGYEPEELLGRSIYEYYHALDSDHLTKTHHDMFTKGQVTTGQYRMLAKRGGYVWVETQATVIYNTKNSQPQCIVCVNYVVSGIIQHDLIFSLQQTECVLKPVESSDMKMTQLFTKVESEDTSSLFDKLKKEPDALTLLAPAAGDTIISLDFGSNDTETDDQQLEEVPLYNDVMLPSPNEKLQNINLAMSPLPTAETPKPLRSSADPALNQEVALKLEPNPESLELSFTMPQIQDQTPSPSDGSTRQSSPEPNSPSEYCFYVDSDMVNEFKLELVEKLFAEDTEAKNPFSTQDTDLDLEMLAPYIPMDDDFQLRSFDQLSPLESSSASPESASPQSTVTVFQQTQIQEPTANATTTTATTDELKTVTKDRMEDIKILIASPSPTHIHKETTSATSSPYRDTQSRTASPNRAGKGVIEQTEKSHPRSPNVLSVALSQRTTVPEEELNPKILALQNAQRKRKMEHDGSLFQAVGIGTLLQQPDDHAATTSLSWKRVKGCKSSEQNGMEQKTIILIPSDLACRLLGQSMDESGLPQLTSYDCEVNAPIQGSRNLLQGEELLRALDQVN
row,Compound,EC50
1,CN1CCC2(CC1)N=C(c1ccc(F)cc1)C(=S)N2C(=O)c1ccc(C(C)(C)C)cc1,> 35 µM (inactive)
2,CC(=O)Nc1c([N+](=O)[O-])cc(C)c(Cl)c1[N+](=O)[O-],> 35 µM (inactive)
3,CC(=O)c1ccc(C(=O)N2CCCC(Nc3ccc(C(C)C)cc3)C2)s1 (stereo unspecified),> 35 µM (inactive)
4,COc1ccc(N2CCN(C(=O)CN(C)S(=O)(=O)c3cc(C)ccc3OC)CC2)cc1,> 35 µM (inactive)
5,O=C(Nc1cccc(-c2cn3ccccc3n2)c1)C1CC1,> 35 µM (inactive)
6,O=C(/C=C/c1ccc2c(c1)OCO2)Nc1cccnc1,> 35 µM (inactive)
7,CCCNC(=S)N1CCCC(c2nc3ccccc3[nH]2)C1 (stereo unspecified),> 35 µM (inactive)
8,COc1ccc(/C=N/NC(=O)c2nc(-c3ccccc3)n(-c3ccccc3)n2)c(O)c1,25.4 µM
9,O=C(N/N=C/c1ccccn1)c1ccc(Cl)cc1,12.8 µM
10,[O-]/C(=C(\C(=S)Nc1cccc2ccccc12)[n+]1ccccc1)c1cccs1,> 35 µM (inactive)
11,CCN(CC)c1ccc(/C=N/NC(=O)c2cccc(S(=O)(=O)Nc3ccccc3OC)c2)c(O)c1,0.838 µM
12,Cc1ccc(S(=O)(=O)N2CC(C)N(C(=O)N3CCOCC3)C2C)cc1 (stereo unspecified),> 35 µM (inactive)
13,O=C(N/N=C/c1c(O)ccc2ccccc12)c1cccnc1,0.678 µM
14,O=C(O)c1ccc(N2C(=O)CSC2=S)cc1,> 35 µM (inactive)
15,Oc1ccccc1/C=N/Nc1nc2ccccc2o1,8.18 µM
16,Cc1cc([N+](=O)[O-])nn1Cc1ccc(C(=O)N/N=C/c2ccc(O)cc2O)cc1,22.4 µM
17,COc1ccc(C)cc1NC(=O)c1ccc(N(C)S(C)(=O)=O)cc1,> 35 µM (inactive)
18,COc1ccc(/C=N/NC(=O)c2ccoc2C)cc1O,> 35 µM (inactive)
19,Cc1ccc(N2CC(=O)Nc3c(sc4nc(C)cc(C)c34)C2=O)cc1,> 35 µM (inactive)
20,CCOCC(=O)Nc1ccc(S(=O)(=O)N2CCC(c3nc4ccccc4[nH]3)CC2)cc1,> 35 µM (inactive)
21,CCOC(=O)N1CCC(Nc2c(-c3ccccc3)c(=O)c2=O)CC1,> 35 µM (inactive)

row,Compound,EC50
1,Cn1cccc1-c1cc(C(=O)N/N=C/c2cc(Br)ccc2O)[nH]n1,4.69 µM
2,Cc1ccc(NC2CCCN(C(=O)C3CCCCC3)C2)cc1C (stereo unspecified),> 35 µM (inactive)
3,CCOC(=O)c1[nH]cnc1N=Nc1c(O)ccc2ccccc12,2.2 µM
4,COc1cc(C(=O)NCCc2nc3ccccc3n2C)cc(OC)c1OC,> 35 µM (inactive)
5,COc1ccccc1-c1cc(C(F)(F)F)nc(S(=O)(=O)CCCC(=O)NCc2ccc(F)cc2)n1,9.53 µM
6,C/C(=N\OCc1nc2ccccc2c(=O)n1/N=C/c1cc(C)cc([N+](=O)[O-])c1O)c1ccccc1,> 35 µM (inactive)
7,C/C(=N\NC(=O)c1cc(-c2cccnc2)nc2ccccc12)c1ccccc1O,21.9 µM
8,CCn1c(SCC(=O)Nc2nncs2)nnc1-c1ccco1,> 35 µM (inactive)
9,NC(=O)c1sc2nccc(Nc3ccccc3)c2c1N,> 35 µM (inactive)
10,CC(C)Sc1nc(N)c2c3c(sc2n1)CN(C)CC3,> 35 µM (inactive)
11,Oc1ccc(Cl)cc1CNCC1CCCO1 (stereo unspecified),> 35 µM (inactive)
12,Cc1ccc(NC(=O)Cn2cnc3c(=O)n(C)c(=O)n(C)c32)c(C)c1,> 35 µM (inactive)
13,Cc1cccc2sc(NNC(=O)c3ccc(S(=O)(=O)N4CCc5ccccc5C4)cc3)nc12,11.2 µM
14,CCOC(=O)C1(C)NC(c2ccc(OC)cc2OC)C2C(=O)N(CC)C(=O)C21 (stereo unspecified),> 35 µM (inactive)
15,O=C(NC(=S)Nc1ccccn1)c1cccc([N+](=O)[O-])c1,> 35 µM (inactive)
16,CCCC(=O)NC(c1ccc(C)cc1)c1ccc2cccnc2c1O (stereo unspecified),7.22 µM
17,O=C(NCCCN1CCN(c2ccccc2F)CC1)Nc1ccccc1[N+](=O)[O-],> 35 µM (inactive)
18,CCCCC(=O)N1CCN(c2nc3ccc(F)cc3s2)CC1,> 35 µM (inactive)
19,O=C(N/N=C/c1c(O)ccc2ccccc12)c1cccc(C(F)(F)F)c1,8.56 µM
20,CCCCC(=O)NC(c1ccccc1)c1ccc2cccnc2c1O (stereo unspecified),17.4 µM
